This passage reports IC50 results from US7829572B2 (Pfizer Inc, priority 2006, dated 2010).

In the assay the target is T1, calcium receptor (CasR) (Homo sapiens, UniProt P41180).
T1 construct: expressed in transfected cells; host or cells: HEK 293
T1 sequence (P41180 20-1078): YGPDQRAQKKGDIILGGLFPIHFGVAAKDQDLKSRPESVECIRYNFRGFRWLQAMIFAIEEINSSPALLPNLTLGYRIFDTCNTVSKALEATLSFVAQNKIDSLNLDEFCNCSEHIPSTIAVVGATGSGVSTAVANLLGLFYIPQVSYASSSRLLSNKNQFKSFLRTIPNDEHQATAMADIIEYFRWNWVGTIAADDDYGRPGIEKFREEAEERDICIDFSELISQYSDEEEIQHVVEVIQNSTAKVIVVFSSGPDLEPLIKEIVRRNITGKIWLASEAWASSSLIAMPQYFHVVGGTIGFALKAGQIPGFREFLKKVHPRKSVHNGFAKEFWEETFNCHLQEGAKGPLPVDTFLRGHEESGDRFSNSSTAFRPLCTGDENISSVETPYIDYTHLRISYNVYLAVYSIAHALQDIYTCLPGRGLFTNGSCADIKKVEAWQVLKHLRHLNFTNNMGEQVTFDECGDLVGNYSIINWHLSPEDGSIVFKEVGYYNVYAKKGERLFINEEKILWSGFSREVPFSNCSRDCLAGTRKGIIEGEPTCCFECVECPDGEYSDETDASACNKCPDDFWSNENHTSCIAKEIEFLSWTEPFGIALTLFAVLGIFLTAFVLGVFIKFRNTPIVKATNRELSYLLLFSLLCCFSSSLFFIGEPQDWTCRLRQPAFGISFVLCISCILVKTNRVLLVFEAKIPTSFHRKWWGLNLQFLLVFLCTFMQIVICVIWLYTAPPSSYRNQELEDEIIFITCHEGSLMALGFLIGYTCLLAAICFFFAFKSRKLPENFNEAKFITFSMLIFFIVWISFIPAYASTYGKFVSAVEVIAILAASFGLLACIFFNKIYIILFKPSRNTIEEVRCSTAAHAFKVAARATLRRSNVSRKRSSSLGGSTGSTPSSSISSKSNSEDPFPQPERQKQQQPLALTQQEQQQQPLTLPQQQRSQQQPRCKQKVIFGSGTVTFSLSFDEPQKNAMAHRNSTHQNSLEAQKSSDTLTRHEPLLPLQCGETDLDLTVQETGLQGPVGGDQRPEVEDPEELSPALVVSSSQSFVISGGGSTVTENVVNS
Put plainly: FLIPR Assay for Evaluating the Potency and Selectivity of Test Compounds. Format: cell-based. As to conditions: HEK 293 cells expressing CasR; 30 minutes pre-incubation; stimulation by 1.7 mM Ca2+; read 42 seconds after stimulation. An excerpt:
FLIPR Assay for Evaluating the Potency and Selectivity of Test Compounds
Human kidney cell (HEK 293) expressing the calcium receptor (CasR) are used to detect antagonists of the receptor using Fluorometric imaging plate reader (FLIPR, Molecular Devices, Sunnyvale Calif.). Receptor activation by extracellular calcium results in the release of calcium from intracellular stores into the cytosol. A fluorescent indicator (Fluo-4) is internalized by the cells from growth media and interacts with calcium released into the cytosol to provide a means of quantifying intracellular Ca^2+ levels and receptor agonism/antagonism. Fluorescence intensity is detected by the FLIPR CCD camera and traced as a function of time. Potential antagonists are identified by their ability to decrease this fluorescent response.
Prior to the addition of test compound cells are washed with a 10 mM HEPES buffer solution. The test compound, for example the compound of Example 1, is added at various doses (from 1 µM to 3 nM) and pre-incubated with cells for 30 minutes followed by stimulation of the CasR by the addition of 1.7 mM Ca^2+. IC50 values are based on the ability of the cells to inhibit the Ca^2+ induced increase in intracellular Ca^2+. Fluorescence signal is read 42 seconds after the stimulation of the CasR by the addition of 1.7 mM Ca^2+.
The following table provides FLIPR IC50 data for the specified Examples. The IC50s are reported as micromolar concentration with n being the number of times the particular compound was assayed.
Consider `CC(Cc1ccccc1F)n1c(-c2ncccc2O)nc2ccnc(C(F)(F)F)c2c1=O` (racemic) [Example 6, (R, S)-2-(3-Hydroxy-pyridin-2-yl)-3-(1-methyl-2-(2-fluorophenyl)ethyl)-5-trifluoromethyl-3H-pyrido[4,3-d]pyrimidin-4-one], for which the IC50 turned out to be 50 nM. For the molecule `O=c1c2c(C(F)(F)F)nccc2nc(-c2ncccc2O)n1CCC1CCCCO1` (racemic) [Example 49, (R, S)-2-(3-hydroxypyridin-2-yl)-3-(2-(tetrahydro-2H-pyran-2-yl)ethyl)-5-(trifluoromethyl)pyrido[4,3-d]pyrimidin-4(3H)-one], the IC50 was 480 nM. Then `CC(Cc1ccccc1F)n1c(-c2ncccc2O)nc2ccnc(C(F)(F)F)c2c1=O` (single isomer, unassigned) [Example 6a, 2-(3-Hydroxy-pyridin-2-yl)-3-(1-methyl-2-(2-fluorophenyl)ethyl)-5-trifluoromethyl-3H-pyrido[4,3-d]pyrimidin-4-one], with 50 nM; and `CC(Cc1ccccc1F)n1c(-c2ncccc2O)nc2ccnc(C(F)(F)F)c2c1=O` (single isomer, unassigned) [Example 6b, 2-(3-Hydroxy-pyridin-2-yl)-3-(1-methyl-2-(2-fluorophenyl)ethyl)-5-trifluoromethyl-3H-pyrido[4,3-d]pyrimidin-4-one], with 1400 nM; and `O=c1c2c(C(F)(F)F)nccc2nc(-c2ccccc2O)n1CCc1ccccc1` [Example 1, 2-(2-Hydroxy-phenyl)-3-phenethyl-5-trifluoromethyl-3H-pyrido[4,3-d]pyri-midin-4-one], with 50 nM. Next, `O=c1c2c(C(F)(F)F)nccc2nc(-c2cccc(F)c2O)n1CCc1ccccc1` [Example 2, 2-(3-Fluoro-2-hydroxy-phenyl)-3-phenethyl-5-trifluoromethyl-3H-pyrido[4,3-d]pyrimidin-4-one]: 620 nM; `O=c1c2c(C(F)(F)F)nccc2nc(-c2ncccc2O)n1CCc1ccccc1` [Example 3, 2-(3-Hydroxy-pyridin-2-yl)-3-phenethyl-5-trifluoromethyl-3H-pyrido[4,3-d]pyrimidin-4-one]: 390 nM; `C[C@H](Cc1ccccc1)n1c(-c2ccccc2O)nc2ccnc(C(F)(F)F)c2c1=O` [Example 4a, (R)-2-(2-Hydroxy-phenyl)-3-(1-methyl-2-phenyl-ethyl)-5-trifluoromethyl-3H-pyrido[4,3-d]pyrimidin-4-one]: 60 nM. For the molecule `C[C@@H](Cc1ccccc1)n1c(-c2ccccc2O)nc2ccnc(C(F)(F)F)c2c1=O` [Example 4b, (S)-2-(2-Hydroxy-phenyl)-3-(1-methyl-2-phenyl-ethyl)-5-trifluoromethyl-3H-pyrido[4,3-d]pyrimidin-4-one], the IC50 stood at 160 nM. Next, `C[C@H](Cc1ccccc1)n1c(-c2ncccc2O)nc2ccnc(C(F)(F)F)c2c1=O` [Example 5, (R)-2-(3-Hydroxy-pyridin-2-yl)-3-(1-methyl-2-phenyl-ethyl)-5-trifluoromethyl-3H-pyrido[4,3-d]pyrimidin-4-one]: 20 nM; `O=c1c2c(C(F)(F)F)nccc2nc(-c2ccccc2O)n1CCc1ccccc1F` [Example 7]: 130 nM; `O=c1c2c(C(F)(F)F)nccc2nc(-c2ccccc2O)n1CCc1cccc(F)c1` [Example 8]: 90 nM. Then `O=c1c2c(C(F)(F)F)nccc2nc(-c2cccc(F)c2O)n1CCc1ccccc1F` [Example 9, 2-(3-Fluoro-2-hydroxy-phenyl)-3-[2-(2-fluoro-phenyl)-ethyl]-5-trifluoromethyl-3H-pyrido[4,3-d]pyrimidin-4-one], with 290 nM; and `Cc1cc2nc(-c3ccccc3O)n(CCc3ccccc3)c(=O)c2c(C(F)(F)F)n1` [Example 10, 2-(2-Hydroxy-phenyl)-7-methyl-3-(phenyl-ethyl)-5-trifluoromethyl-3H-pyrido[4,3-d]pyrimidin-4-one], with 120 nM.

For `O=c1c2c(C(F)(F)F)nccc2nc(-c2cccc(F)c2O)n1CCc1cccc(F)c1` [Example 11, 2-(3-Fluoro-2-hydroxy-phenyl)-3-[2-(3-fluoro-phenyl)-ethyl]-5-trifluoromethyl-3H-pyrido[4,3-d]pyrimidin-4-one], the IC50 was determined as 460 nM. Next, `O=c1c2c(C(F)(F)F)nccc2nc(-c2ncccc2O)n1CCc1ccccc1F` [Example 12, 3-[2-(2-Fluoro-phenyl)-ethyl-]2-(3-hydroxy-pyridin-2-yl)-5-trifluoromethyl-3H-pyrido[4,3-d]pyrimidin-4-one]: 250 nM. Then `O=c1c2c(C(F)(F)F)nccc2nc(-c2ncccc2O)n1CCc1ccc(F)c(F)c1` [Example 13, 3-[2-(3,4-Difluoro-phenyl)-ethyl]-2-(3-hydroxy-pyridin-2-yl)-5-trifluoromethyl-3H-pyrido[4,3-d]pyrimidin-4-one], with 70 nM; and `O=c1c2c(C(F)(F)F)nccc2nc(-c2ncccc2O)n1CCc1ccc(F)cc1F` [Example 14, 3-[2-(2,4-Difluoro-phenyl)-ethyl]-2-(3-hydroxy-pyridin-2-yl)-5-trifluoromethyl-3H-pyrido[4,3-d]pyrimidin-4-one], with 170 nM. For `O=c1c2c(C(F)(F)F)nccc2nc(-c2ccccc2O)n1CCc1ccc(F)c(F)c1` [Example 15], the IC50 was found to be 160 nM. Next, `CNc1nccc2nc(-c3ccccc3O)n(CCc3ccccc3)c(=O)c12` [Example 16, 2-(2-Hydroxy-phenyl)-5-methylamino-3-phenethyl-3H-pyrido[4,3-d]pyrimidin-4-one]: 10800 nM; `CC(C)Nc1nccc2nc(-c3ccccc3O)n(CCc3ccccc3)c(=O)c12` [Example 17, 2-(2-Hydroxy-phenyl)-5-isopropylamino-3-phenethyl-3H-pyrido[4,3-d]pyrimidin-4-one]: 11000 nM; `O=c1c2c(N3CCCC3)nccc2nc(-c2ccccc2O)n1CCc1ccccc1` [Example 18, 2-(2-Hydroxy-phenyl)-3-phenethyl-5-pyrrolidin-1-yl-3H-pyrido[4,3-d]pyrimidin-4-one]: 12300 nM. Then `CN1CCN(c2nccc3nc(-c4ccccc4O)n(CCc4ccccc4)c(=O)c23)CC1` [Example 19, 2-(2-Hydroxy-phenyl)-5-(4-methyl-piperazin-1-yl)-3-phenethyl-3H-pyrido[4,3-d]pyrimidin-4-one], with more than 100000 nM.

As to `O=c1c2c(N3CCNCC3)nccc2nc(-c2ccccc2O)n1CCc1ccccc1` [Example 20, 2-(2-Hydroxy-phenyl)-3-phenethyl-5-piperazin-1-yl-3H-pyrido[4,3-d]pyrimidin-4-one], the IC50 was more than 100000 nM.

In the case of `CN(C)c1nccc2nc(-c3ccccc3O)n(CCc3ccccc3)c(=O)c12` [Example 21, 5-Dimethylamino-2-(2-hydroxy-phenyl)-3-phenethyl-3H-pyrido[4,3-d]pyrimidin-4-one], the IC50 amounted to 13800 nM. Next, `O=c1c2c(N3CCOCC3)nccc2nc(-c2ccccc2O)n1CCc1ccccc1` [Example 22, 2-(2-Hydroxy-phenyl)-5-morpholin-4-yl-3-phenethyl-3H-pyrido[4,3-d]pyrimidin-4-one]: more than 100000 nM; `O=c1c2c(N3CCC3)nccc2nc(-c2ccccc2O)n1CCc1ccccc1` [Example 23, 5-Azetidin-1-yl-2-(2-hydroxy-phenyl)-3-phenethyl-3H-pyrido[4,3-]d-pyrimidin-4-one]: 13700 nM.

For orientation: IC50 means the concentration needed to halve the response being measured.
